# Experimental data as given in patent US20100204115A1, “USE OF ACETYL- (ALA10, 11)-RANTES (1-14) AND/OR CALCITONIN AS ANTI-ANGIOGENIC AGENTS” (priority 2007, published 2010).
# What was measured:
# HIV-1IIIB = test: HIV-1 antiviral assay in CEM-SS cells (MTS readout); conditions: positive controls
# A549 cells = test: Apoptosis prevention assay (C2 ceramide, Annexin-5); type: cell-based, human; conditions: 10 micrograms per ml, 30 min pretreatment
# HCMV strain AD169 = test: HCMV plaque formation assay in MRC-5 cells; conditions: for inhibition of HCMV plaque formation as compared to the virus control experiment: 10 micrograms per ml, 7-10 days
# [1] = test system: Primary Human endothelial cells (HUVEC); test: Endothelial cell migration assay; type: cell-based; conditions: 10 micrograms per ml, 22 hours
# IFNγ, spleen cells = test: Th1/Th2 cytokine profiling assay, IFNγ; type: cell-based, Balb/c mice; conditions: 10 micrograms per ml; Ovalbumin-restimulated spleen cells, 72 hours
# Source text: (§1) Th1/Th2 Cytokine Profiling Assay The Balb/c mice (originated in 1923, it is a popular strain and is used in many different research disciplines. […] On day 50, spleens of the mice were harvested (3 weeks after last boost with Ovalbumin). […] This kit can be used to measure Interleukin-2 (IL-2), Interleukin-4 (IL-4), Interleukin-5 (IL-5), Interferon-γ (IFN-γ), and Tumor Necrosis Factor-α (TNF-α) protein levels in a single sample. The kit performance has been optimized for analysis of physiologically relevant concentrations (pg/ml levels) of specific cytokine proteins in tissue culture supernatants and serum samples.
# IL-4, spleen cells = test: Th1/Th2 cytokine profiling assay, IL-4; type: cell-based, Balb/c mice; conditions: 10 micrograms per ml; Ovalbumin-restimulated spleen cells, 72 hours
# Source text: as §1
# TNF-a, spleen cells = test: Th1/Th2 cytokine profiling assay, TNF-a; type: cell-based, Balb/c mice; conditions: 10 micrograms per ml; Ovalbumin-restimulated spleen cells, 72 hours
# Source text: as §1
# RAW 264.7 cells = test: Phagocytosis assay (Fluorescein-labeled Escherichia coli, flow cytometry); type: cell-based, mouse; conditions: 10 micrograms per ml
# [2] = test system: hepatitis B virus (HBV) ayw strain; test: HBV experimental assay system, secreted HBV DNA by TaqMan PCR; type: cell-based; conditions: 10 micrograms per ml; HepG2-2.2.15, six days, HBV DNA in supernatant; combination 0.95 mole peptide 1 and 1.05 mole peptide 2
# IL-5, spleen cells = test: Th1/Th2 cytokine profiling assay, IL-5; type: cell-based, Balb/c mice; conditions: 10 micrograms per ml; Ovalbumin-restimulated spleen cells, 72 hours
# Source text: as §1
# HUVEC = test: Endothelial tube formation assay; type: cell-based, human; conditions: 10 micrograms per ml, 20 hours, average tubule length, combination peptide 1:peptide 2 0.95 mole:1.05 mole
# Experimental: The endothelial tube formation assay is based on the ability of endothelial cells to form three-dimensional capillary-like tubular structures when cultured on a gel of basement membrane extract. The endothelial tube formation assay represents a powerful model for studying inhibition and induction of angiogenesis. Pre-labeled HUVEC with Calcein AM were seeded in a 96-well culture plate coated with extracellular metrix (Chemicon international Cat. ECM625) and treated with test peptides—10 micrograms per ml—in full growth medium. Positive control was vehicle only. The endothelial cells were allowed to form tubes foe 20 hours and were then examined under an inverted fluorescent microscope. Duplicate wells for each treatment were photographed and quantitatively analyzed for an average tubule length using image analysis software ImageProPlus. Raw data were expressed as average tubule lenghs in pixels ±standard deviation. Statistic p values were computed using the Student's t-test.
# IL-2, spleen cells = test: Th1/Th2 cytokine profiling assay, IL-2; type: cell-based, Balb/c mice; conditions: 10 micrograms per ml; Ovalbumin-restimulated spleen cells, 72 hours
# Source text: as §1
Compound,antiviral activity of positive control compounds (HIV-1IIIB),inhibition of HCMV plaque formation as compared to the virus control experiment (HCMV strain AD169),"IFNγ spleen cells; TH1 response (% of control) (IFNγ, spleen cells)","IL-4 spleen cells; TH2 response (% of control) (IL-4, spleen cells)","TNF-a spleen cells; TH1 response (% of control) (TNF-a, spleen cells)",inhibition of HBV replication as compared to the virus control infection [2] [%],"IL-5 spleen cells; TH2 response (% of control) (IL-5, spleen cells)",inhibition of the tube formation of endothelial cells (HUVEC) [%],"IL-2 spleen cells (% of control) (IL-2, spleen cells)",further results
CC(C)(C)NC(=O)[C@@H]1CN(Cc2cccnc2)CCN1C[C@@H](O)C[C@@H](Cc1ccccc1)C(=O)N[C@H]1c2ccccc2C[C@H]1O [indinavir],expected levels of antiviral activity,–,–,–,–,–,–,–,–,–
Ac-Ser-Pro-Tyr-Ser-Ser-Asp-Thr-Thr-Pro-Ala-Ala-Phe-Ala-Tyr-NH2 (Ac-SPYSSDTTPAAFAY-NH2) [peptide 1],–,did not inhibit HCMV plaque formation,102.8 % of control,80.4 % of control,107.4 % of control,40.7,70.7 % of control,26,116.2 % of control,"increase of the ceramide-induced apoptosis on human lung cells (A549 cells): 13.2%; induction of the migration of human endothelial cells [1]: 11%; increase of the phagocytic activity of murine macrophages (RAW 264.7 cells; RAW 264.7, Fluorescein-labeled E. coli): 42.9%"
Cc1cn([C@H]2C[C@H](N=[N+]=[N-])[C@@H](CO)O2)c(=O)[nH]c1=O [AZT],expected levels of antiviral activity,–,–,–,–,–,–,–,–,–
Cys-Gly-Asn-Leu-Ser-Thr-Cys-Met-Leu-Gly-Thr-Tyr-Thr-Gln-Asp-Phe-Asn-Lys-Phe-His-Thr-Phe-Pro-Gln-Thr-Ala-Ile-Gly-Val-Gly-Ala-Pro-NH2 [peptide 2],–,did not inhibit HCMV plaque formation,63.7 % of control,0.0 % of control,116.4 % of control,31.0,60.2 % of control,18,110.1 % of control,"reduction of the ceramide-induced apoptosis on human lung cells (A549 cells; combination 0.95 mole peptide 1 and 1.05 mole peptide 2): 32.7%; inhibition of the migration of human endothelial cells [1]: 26%; inhibitory or activating effects on the phagocytic activity of murine macrophages (RAW 264.7 cells; RAW 264.7, combination peptide 1:peptide 2 1.10 mole:0.90 mole): no inhibitory or activating effects on the phagocytic activity"
"Nc1nc(O)c2ncn(COC(CO)CO)c2n1 [Ganciclovir, reference compound]",–,–,–,–,–,–,–,–,–,"antiviral activity of positive control compound (HCMV strain AD169; HCMV AD169, positive control): expected levels of antiviral activity"
